Target: Nonstructural protein 3 (Zika virus) (UniProt A0A024AXB9)
Experiment: Functional biochemical assay to identify treatments for viral infectious disease that targets Zika NS2B-NS3 protease. Utilizing a direct enzyme activity measurement method, reading the fluorescence intensity is used to characterize the relative potency of inhibitors as % inhibition. Synthetic construct has been made based on Zika virus (strain PRVABC59) by Centre for Medicines Discovery, University of Oxford, and the assay has been performed by Stanford University.The protocol is publicly available: dx.doi.org/10.17504/protocols.io.4r3l29533v1y/v1
Details: Concentration 25.0 uM, Number of replicates 1.0

Nonstructural protein 3 (Zika virus), sequence (A0A024AXB9 as listed by the source): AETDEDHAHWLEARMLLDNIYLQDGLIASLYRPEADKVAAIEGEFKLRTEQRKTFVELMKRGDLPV

SMILES	inhibition
Nc1ccc2ccc(B(O)O)cc2c1	81%
O=Cc1ccc(N2CCCCC2)cc1	49%
O=Cc1ccc(N2CCC(C(=O)O)CC2)cc1	66%
CN(C)c1ccc(C=C(C#N)C(N)=O)cc1	50.7%
CC[C@H]1CO[C@H](C)CN1c1ccc(C=O)cn1	61.5%
Cc1cc(NS(=O)(=O)c2ccc(S(=O)(=O)F)cc2)c[nH]c1=O	60.6%
O=Cc1ccc(N2CCC(C(=O)O)CC2)o1	55.4%
Cc1c(C=O)c2ccccn2c1C(=O)c1ccncc1	48.3%
O=Cc1nc(-c2ccccc2Cl)n2ccccc12	48.3%
Cc1c(C=O)c2ccccn2c1C#N	48.9%
Cc1nc(C=O)c2ccccn12	45%
O=Cc1ccc(N2CCCCCC2)cc1	46.5%
